Columns and labels:
[1] = tested on: human panelists (perceived sweetness intensity); assay: Sweet flavor and sweet flavor enhancement, human panelists, scaling test; type: in vivo; parameters: key: 0-15 line scale; 0 = no sweetness, 15 = 15% sucrose sweetness
Source text: Test samples containing experimental compounds were compared to a dose-response curve for perceived sweetness intensity of sweeteners (such as, for example, sucralose, sucrose, fructose and other sweeteners) concentrations to determine equivalent sweetness intensity.
A group of eight or more panelists tasted solutions including sweeteners at various concentrations, as well as the experimental compound both with and without added sweetener. Panelists then rated sweetness intensity of all samples on a structured horizontal line scale, anchored from 0 to 15, where 0 equals no sweetness and 15 equals equivalent sweetness to a 15% sucrose sample. Scores for sweetness intensity were averaged across panelists. Then using the average scores and/or equation of the line for the sweetener dose-response curve, equivalent sweetness concentrations were determined for the samples containing experimental compounds.
Subjects had been previously familiarized with the key attribute taste and were trained to use the 0 to 15 point line scale. Subjects refrained from eating or drinking (except water) for at least 1 hour prior to the test. Subjects ate a cracker and rinsed with water several times to clean the mouth.
Sweetener solutions are provided at a wide range of concentrations such as 100 ppm, 200 ppm, 300 ppm, 400 ppm, and 500 ppm for sucralose, or between 0% and 12% for sucrose or fructose, in order to create a dose-response curve. Samples containing experimental compound were prepared both alone and in a 100 ppm sucralose solution or a 6% sucrose or fructose solution. All samples were made up in low sodium buffer pH 7.1. In order to aid dispersion, solutions can be made up in 0.1% ethanol.
The solutions were dispensed in 20 ml volumes into 1 oz. sample cups and served to the subjects at room temperature. All samples were presented in randomized counterbalanced order to reduce response bias. Further, two sessions of testing may be used to check panel precision.
Subjects tasted each sample individually and rate sweetness intensity on the line scale prior to tasting the next sample. All samples were expectorated. Subjects may retaste the samples but can only use the volume of sample given. Subjects must rinse with water between samples. Eating an unsalted cracker between samples may be required depending on the samples tasted.
The scores for each sample were averaged across subjects and standard error was calculated. The dose-response curve was plotted graphically, and this may be used to ensure the panel is rating accurately; i.e., increasing the concentration of sucralose should correspond to increased average scores for sweetness. A 2-way ANOVA (factors being samples and panelists) and multiple comparison tests (such as Tukey's Honestly Significant Difference test) can be used to determine differences among samples and/or panelists. A 3-way ANOVA, with sessions as the third factor, can be used to determine if there is any difference in the ratings between sessions.

With `Nc1cc(=O)[nH]c2ccccc12` [Example 65, 4-Aminoquinolin-2(1H)-one] as the compound, how does the melting point read?
The melting point was over 250 °C.

For `NC1=NS(=O)(=O)Nc2cccc(OC3CCCCC3)c21` [Example 168, 4-Amino-5-(cyclohexyloxy)-1H-benzo[c][1,2,6]thiadiazine-2,2-dioxide], which melting point is on record?
The melting point was 215 to 216 °C.

Which melting point does the source give for `C/C=C/c1cccc2c1C(N)=NS(=O)(=O)N2` [Example 130, 4-Amino-5-((E)-prop-1-enyl)-1H-benzo[c][1,2,3]thiadiazine-2,2-dioxide] here?
Its melting point is over 260 °C.

With `CC(C)=Cc1c(F)ccc2c1C(N)=NS(=O)(=O)N2` [Example 134, 4-Amino-6-fluoro-5-(2-methylprop-1-enyl)-1H-benzo[c][1,2,3]thiadiazine-2,2-dioxide] as the compound, how does the melting point read?
The melting point was over 250 °C.

For `Nc1nc(=O)[nH]c2sc3c(c12)CCOC3` [Example 146, 4-Amino-5,6-(5′,7′-dihydro-4′H-[2′,3′-c]pyrano)thieno[2,3-d]-pyrimidine-2(1H)-one], which melting point is on record?
The melting point was over 260 °C.

With `O=C(NC1CCCCC1)c1c(O)c2ccccc2[nH]c1=O` [Example 73, N-cyclohexyl-4-hydroxy-2-oxo-1,2-dihydroquinoline-3-carboxamide] as the compound, how does the melting point read?
The melting point was 221 °C.

For `CC(C)=Cc1cccc2c1C(N)=NS(=O)(=O)N2` [Example 129, 4-Amino-5-(2-methylprop-1-enyl)-1H-benzo[c][1,2,3]thiadiazine-2,2-dioxide], which melting point is on record?
The melting point was over 260 °C.

With `NC1=NS(=O)(=O)Nc2cccc(OCC3CC3)c21` [Example 186, (S)-4-Amino-5-(cyclopropylmethoxy)-1H-benzo[c][1,2,6]thiadiazine-2,2-dioxide] as the compound, how does the melting point read?
The melting point was 246 to 247 °C.

Which melting point does the source give for `CC(C)(COc1cccc2c1C(N)=NS(=O)(=O)N2)NC(=O)c1ccccc1` [Example 216, N-(1-(4-amino-2,2-dioxide-1H-benzo[c][,6]thiadiazin-5-yloxy)-2′-methylpropan-2′-yl)benzamide] here?
Its melting point is 235 to 236 °C.

For `OC[C@H]1O[C@@](CO)(O[C@H]2O[C@H](CO)[C@@H](O)[C@H](O)[C@H]2O)[C@@H](O)[C@@H]1O` [Sucrose, sucrose], which “Average sweetness score (line scale 0 to 15)” value (shortened to “Average sweetness score”) ([1]; Table 5, 2% sucrose alone) is on record?
Its value is 2.4.

And the “Average sweetness score” value ([1]; Table 7, 2% sucrose alone)?
The value was 1.8.

What about the “Average sweetness score” value ([1]; Table 8, 6% sucrose alone) of the same compound?
The value was 6.6.

What about the “Average sweetness score” value ([1]; Table 8, 8% sucrose alone) of the same compound?
Its value is 8.1.

And the “Average sweetness score” value ([1]; Table 8, 9% sucrose alone)?
The value was 8.6.

And the “Average sweetness score” value ([1]; Table 8, 10% sucrose alone)?
Its value is 9.6.

What about the “Average sweetness score” value ([1]; Table 9, 2% sucrose alone) of the same compound?
The value was 2.2.

What about the “Average sweetness score” value ([1]; Table 9, 4% sucrose alone) of the same compound?
The value was 4.0.

What about the “Average sweetness score” value ([1]; Table 9, 6% sucrose alone) of the same compound?
The value was 5.5.

What about the “Average sweetness score” value ([1]; Table 10, 6% sucrose alone) of the same compound?
The value was 7.3.

What about the “Average sweetness score” value ([1]; Table 10, 8% sucrose alone) of the same compound?
Its value is 7.9.

And the “Average sweetness score” value ([1]; Table 10, 9% sucrose alone)?
The value was 8.6.

And the “Average sweetness score” value ([1]; Table 10, 10% sucrose alone)?
Its value is 9.6.

What about the “Average sweetness score” value ([1]; Table 11, 2% sucrose alone) of the same compound?
The value was 2.1.

And the “Average sweetness score” value ([1]; Table 11, 4% sucrose alone)?
The value was 3.9.

What about the “Average sweetness score” value ([1]; Table 11, 6% sucrose alone) of the same compound?
The value was 5.7.

What about the “Average sweetness score” value ([1]; Table 12, 6% sucrose alone) of the same compound?
Its value is 6.8.

And the “Average sweetness score” value ([1]; Table 12, 8% sucrose alone)?
Its value is 8.3.

And the “Average sweetness score” value ([1]; Table 12, 9% sucrose alone)?
The value was 8.6.

And the “Average sweetness score” value ([1]; Table 12, 10% sucrose alone)?
Its value is 9.5.

And the “Average sweetness score” value ([1]; Table 13, 2% sucrose alone)?
The value was 1.9.

And the “Average sweetness score” value ([1]; Table 13, 4% sucrose alone)?
Its value is 3.9.

And the “Average sweetness score” value ([1]; Table 13, 6% sucrose alone)?
Its value is 5.5.

And the “Average sweetness score” value ([1]; Table 14, 6% sucrose alone)?
Its value is 6.5.

And the “Average sweetness score” value ([1]; Table 14, 8% sucrose alone)?
The value was 8.5.

And the “Average sweetness score” value ([1]; Table 14, 9% sucrose alone)?
Its value is 8.7.

What about the “Average sweetness score” value ([1]; Table 14, 10% sucrose alone) of the same compound?
The value was 9.7.

And the “Average sweetness score” value ([1]; Table 15, 6% sucrose alone)?
Its value is 7.0.

What about the “Average sweetness score” value ([1]; Table 15, 8% sucrose alone) of the same compound?
Its value is 8.4.

And the “Average sweetness score” value ([1]; Table 15, 9% sucrose alone)?
The value was 9.0.

What about the “Average sweetness score” value ([1]; Table 15, 10% sucrose alone) of the same compound?
The value was 9.1.

And the “Average sweetness score” value ([1]; Table 16, 2% sucrose alone)?
The value was 2.0.

And the “Average sweetness score” value ([1]; Table 16, 4% sucrose alone)?
Its value is 4.1.

What about the “Average sweetness score” value ([1]; Table 16, 6% sucrose alone) of the same compound?
The value was 5.7.

And the “Average sweetness score” value ([1]; Table 18, 2% sucrose alone)?
Its value is 2.4.

And the “Average sweetness score” value ([1]; Table 18, 4% sucrose alone)?
Its value is 4.2.

What about the “Average sweetness score” value ([1]; Table 18, 6% sucrose alone) of the same compound?
Its value is 5.9.

And the “Average sweetness score” value ([1]; Table 19, 6% sucrose alone)?
The value was 7.3.

What about the “Average sweetness score” value ([1]; Table 19, 8% sucrose alone) of the same compound?
The value was 8.6.

What about the “Average sweetness score” value ([1]; Table 19, 9% sucrose alone) of the same compound?
Its value is 9.1.

And the “Average sweetness score” value ([1]; Table 19, 10% sucrose alone)?
Its value is 9.7.

What about the “Average sweetness score” value ([1]; Table 20, 2% sucrose alone) of the same compound?
The value was 8.6.

And the “Average sweetness score” value ([1]; Table 20, 4% sucrose alone)?
The value was 9.1.

And the “Average sweetness score” value ([1]; Table 20, 6% sucrose alone)?
The value was 9.7.

What about the “Average sweetness score” value ([1]; Table 21, 6% sucrose alone) of the same compound?
Its value is 6.5.

What about the “Average sweetness score” value ([1]; Table 21, 8% sucrose alone) of the same compound?
Its value is 8.3.

What about the “Average sweetness score” value ([1]; Table 21, 9% sucrose alone) of the same compound?
Its value is 9.4.

And the “Average sweetness score” value ([1]; Table 21, 10% sucrose alone)?
Its value is 9.4.

And the “Average sweetness score” value ([1]; Table 22, 6% sucrose alone)?
The value was 6.5.

What about the “Average sweetness score” value ([1]; Table 22, 8% sucrose alone) of the same compound?
The value was 8.2.

What about the “Average sweetness score” value ([1]; Table 22, 9% sucrose alone) of the same compound?
The value was 9.2.

And the “Average sweetness score” value ([1]; Table 22, 10% sucrose alone)?
Its value is 9.4.

And the “Average sweetness score” value ([1]; Table 23, 6% sucrose alone)?
Its value is 6.8.

And the “Average sweetness score” value ([1]; Table 23, 8% sucrose alone)?
Its value is 8.7.

And the “Average sweetness score” value ([1]; Table 23, 9% sucrose alone)?
Its value is 9.5.

And the “Average sweetness score” value ([1]; Table 23, 10% sucrose alone)?
Its value is 9.5.

And the “Average sweetness score” value ([1]; Table 24, 6% sucrose alone)?
Its value is 6.5.

And the “Average sweetness score” value ([1]; Table 24, 8% sucrose alone)?
The value was 8.4.

And the “Average sweetness score” value ([1]; Table 24, 9% sucrose alone)?
The value was 9.2.

And the “Average sweetness score” value ([1]; Table 24, 10% sucrose alone)?
The value was 9.4.

What about the “Average sweetness score” value ([1]; Table 25, 6% sucrose alone) of the same compound?
The value was 6.7.

What about the “Average sweetness score” value ([1]; Table 25, 8% sucrose alone) of the same compound?
Its value is 8.1.

What about the “Average sweetness score” value ([1]; Table 25, 9% sucrose alone) of the same compound?
Its value is 9.3.

What about the “Average sweetness score” value ([1]; Table 25, 10% sucrose alone) of the same compound?
Its value is 9.2.

And the “Average Sweetness” value ([1]; Table 26, 6% Sucrose alone, n = 24)?
The value was 6.2.

And the “Average Sweetness” value ([1]; Table 26, 8% Sucrose alone, n = 24)?
The value was 8.3.

What about the “Average Sweetness” value ([1]; Table 26, 9% Sucrose alone, n = 24) of the same compound?
Its value is 9.3.

And the “Average Sweetness” value ([1]; Table 26, 10% Sucrose alone, n = 24)?
The value was 9.8.

What about the “Average Sweetness” value ([1]; Table 26, 12% Sucrose alone, n = 24) of the same compound?
The value was 11.1.

What about the “Average Sweetness” value ([1]; Table 27, 6% Sucrose alone, n = 30) of the same compound?
Its value is 6.7.

What about the “Average Sweetness” value ([1]; Table 27, 8% Sucrose alone, n = 30) of the same compound?
Its value is 8.3.

What about the “Average Sweetness” value ([1]; Table 27, 10% Sucrose alone, n = 30) of the same compound?
The value was 10.3.

And the “Average Sweetness” value ([1]; Table 27, 12% Sucrose alone, n = 30)?
The value was 11.2.

What about the “Average Sweetness” value ([1]; Table 30, 2% Sucrose alone, n = 30) of the same compound?
The value was 2.3.

What about the “Average Sweetness” value ([1]; Table 30, 4% Sucrose alone, n = 30) of the same compound?
The value was 4.2.

And the “Average Sweetness” value ([1]; Table 30, 6% Sucrose alone, n = 30)?
Its value is 5.8.

And the “Average Sweetness” value ([1]; Table 31, 6% Sucrose alone, n = 28)?
Its value is 6.8.

What about the “Average Sweetness” value ([1]; Table 31, 8% Sucrose alone, n = 28) of the same compound?
The value was 8.5.

And the “Average Sweetness” value ([1]; Table 31, 9% Sucrose alone, n = 28)?
Its value is 8.6.

And the “Average Sweetness” value ([1]; Table 31, 10% Sucrose alone, n = 28)?
The value was 9.6.

What about the “Average Sweetness” value ([1]; Table 32, 2% Sucrose alone, n = 28) of the same compound?
Its value is 2.3.

And the “Average Sweetness” value ([1]; Table 32, 4% Sucrose alone, n = 28)?
Its value is 4.5.

What about the “Average Sweetness” value ([1]; Table 32, 6% Sucrose alone, n = 28) of the same compound?
The value was 5.8.

From patent publication US8633186B2, “Modulation of chemosensory receptors and ligands associated therewith” (Senomyx Inc., priority 2007, dated 2014)
